# Patent US20180290961A1, “METHOD AND SYSTEM FOR OBTAINING A CARBOXYLIC ACID WHICH IS PRODUCED IN A FERMENTATION PROCESS” (THYSSENKRUPP INDUSTRIAL SOLUTIONS AG, priority 2015, published 2018)
# Experiments:
# physchem = details: 20 °C, water
# [1] = precipitation of fermentatively prepared carboxylic acid after acidification; format: physicochemical
# From the text: The invention is based on the observation that sparingly soluble carboxylic acids such as fumaric acid and adipic acid cannot be worked up satisfactorily using the known purification methods. […] In order to compensate for the resulting loss of product, alternative purification methods are necessary.
SMILES,solubility (physchem),concentration above which the acid precipitates after acidification [1]
CC(C)C[C@H](N)C(=O)O [leucine],≤ 50 mg/mL,
CSCC[C@H](N)C(=O)O [methionine],≤ 50 mg/mL,
N[C@@H](Cc1ccccc1)C(=O)O [phenylalanine],≤ 50 mg/mL,
N[C@@H](Cc1c[nH]cn1)C(=O)O [histidine],≤ 50 mg/mL,

# Continued, values first:
solubility (physchem),concentration above which the acid precipitates after acidification [1],SMILES
≤ 15 mg/mL,,O=C(O)c1ccccc1O [salicylic acid]
≤ 15 mg/mL,about 5 g/l,O=C(O)/C=C/C(=O)O [fumaric acid]
≤ 50 mg/mL,,CC[C@H](C)[C@H](N)C(=O)O [isoleucine]
